Laboratory results taken from patent US6624146B1, “Pharmaceutical compositions containing fibroblast growth factor-related peptides” (Agency of Industrial Science and Technology, priority 1998, dated 2003).

Key:
[1] = Weight-reducing effect: change in body weight the day after injection into the cerebral ventricles; type: in vivo, Wistar rats
Description: This peptide was dissolved in physiological saline to prepare a 2.6 pmol/μl peptide-containing injection solution. Five μl of the injection solution (containing 13 pmol peptide) was administered into the cerebral ventricles of 10-week-old male Wistar rats, which were weighed on the next day to calculate amounts of change in weight prior to and subsequent to injection.
On the other hand, 5 μl physiological saline was administered to rats as a control in the same manner as described above, and 2.6 pmol/μl FGF-containing injection solution was administered to rats as a comparative example in the same manner as described above. Each rat was weighed on the next day to calculate amounts of change in weight prior to and subsequent to injection.

[2] = Food and water intake inhibitory effects 12 hours after injection into the cerebral ventricles; type: in vivo, Wistar rats
Description: In the same manner as in example 1, the peptide […]Try-Lys-Lys-Pro-Lys-Leu (SEQ ID NO:3) was synthesized. This peptide was dissolved in physiological saline to prepare a 2.6 pmol/μl peptide-containing injection solution. Five μl of the injection solution (containing 13 pmol peptide) was administered in the cerebral ventricles of 10-week old male Wistar rats, and the food and water intake level were measured 12 hours after administration to compare with those in the same period of the day prior to administration.
On the other hand, 5 μl physiological saline was administered as a control in the same manner as described above, and 2.6 pmol/μl FGF-containing injection solution was administered as a comparative example in the same manner as described above. Food and water intake levels were measured respectively 12 hours after administration, and were compared to those in the same period of the day prior to administration to calculate amounts of change in food and water intake.

[3] = 13 pmol into the cerebral ventricles, 12 hours, vs saline control
[4] = 10-week-old male Wistar rats, 13 pmol/5 μl into the cerebral ventricles, 12 hours after administration vs same period of the day prior

For “Ala-Ala-Val-Ala-Leu-Leu-Pro-Ala-Val-Leu-Leu-Ala-Leu-Leu-Ala-Val-Ala-Ala-Ala-Asn-Try-Lys-Lys-Pro-Lys-Leu (AAVALLPAVLLALLAVAAANYKKPKL; Derivative of partial peptide of fibroblast growth factors)”, the “Weights of the rats compared to physiological saline control (in words)” value ([1]; 13 pmol into the cerebral ventricles, next day, vs saline control) was “significantly reduced”, the “Amount of change in weight” value ([1]; 10-week-old male Wistar rats, 13 pmol/5 μl into the cerebral ventricles, weighed on the next day, prior vs subsequent to injection) was -5.3 g and the “Food intake level compared to physiological saline control (in words)” value [2, 3] was “significantly reduced”. The “Water intake level compared to physiological saline control (in words)” value [2, 3] was “significantly reduced”, the “Amount of change in food intake” value [2, 4] was -4.8 g and the “Amount of change in water intake” value [2, 4] was -8.4 mL.
